From patent publication US7803801B2, “Aminopyridine compounds having Syk inhibitory activity” (Japan Tobacco, Inc., priority 2005, dated 2010) come the findings set out here.

What is called IC50 is the concentration needed to halve the response being measured.

A value given as a limit tells only on which side of the number the result lay.

For assay [1], the target named is GST-Syk Full Protein (human) (Homo sapiens, UniProt P43405). The assay can be described thus: Syk kinase inhibition test (HTRF method). It counts as biochemical. The conditions noted are these: HTRF, 100 μM ATP, 30 min room temperature, average; read-out: sykHTRF ave IC50. The essentials: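 Human GST-Syk full-length (6.4 nM) phosphorylated biotin-EDPDYEWPSA-NH2 (250 nM) with 100 μM ATP in HEPES pH 7.0/MgCl2 buffer, 2% DMSO, 30 min at room temperature. EDTA stop, then HTRF detection (streptavidin-XL665, Eu anti-phosphotyrosine) after 1 h; 665/620 ratio read.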
(In general: TR-FRET usually uses a lanthanide donor and a delayed reading to cut background.)

The test system of assay [2] is cultured human mast cells. Briefly: Degranulation inhibition test using cultured human mast cells (IgE cross-linking, β-Hexosaminidase release). It counts as cell-based. The conditions noted are these: Mast cell; cultured human mast cells, anti-hIgE stimulation, β-Hexosaminidase index, average; read-out: human degranulation ave. IC50. The procedure, abridged: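 CD34+ cord-blood cells cultured ≥8 weeks with SCF/IL-6/IL-3; FcεRI primed 5 days with rhIL-4 (1 ng/mL) and hIgE (0.5 μg/mL). Compound (0.1% DMSO) preincubated 10 min at 37 °C, then anti-IgE (final 10 μg/mL) 30 min; released β-hexosaminidase read at 405 nm versus total lysate, IC50 (M).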

With `CC(=O)N[C@@H](C)c1ncc(-c2cccc(Nc3cc(Cl)ccn3)n2)s1` [Compound A-81, N—((S)-1-{5-[6-(4-chloropyridin-2-ylamino)pyridin-2-yl]thiazol-2-yl}ethyl)acetamide], the IC50 in assay [1] was < 100 nM; in assay [2], 100 to 1000 nM.
For `Cc1ccnc(Nc2cccc(-c3cnc([C@@H](O)C(C)C)s3)n2)c1` [Compound A-82, (S)-2-methyl-1-{5-[6-(4-methylpyridin-2-ylamino)pyridin-2-yl]thiazol-2-yl}propan-1-ol] the same measures were < 100 nM and 100 to 1000 nM.
For `Cc1ccnc(Nc2cccc(-c3cnc(C(=O)C(C)C)s3)n2)c1` [Compound A-83] the same measures were 100 to 1000 nM and > 1000 nM.
For `Cc1ccnc(Nc2cccc(-c3cnc([C@@H](N)Cc4ccc(OCc5ccccc5)cc4)s3)n2)c1` [Compound A-86] the same measures were 100 to 1000 nM and > 1000 nM.
In the case of `CC(=O)N1C[C@H](OCc2ccccc2)C[C@H]1c1ncc(-c2cccc(Nc3cc(C)ccn3)n2)s1` [Compound A-90], the IC50 is 100 to 1000 nM in assay [1] and > 1000 nM in assay [2].
As to `CC(=O)N[C@@H](C)c1ncc(-c2cccc(Nc3cc4ccccc4cn3)n2)s1` [Compound A-91, N—((S)-1-{5-[6-(isoquinolin-3-ylamino)pyridin-2-yl]thiazol-2-yl}ethyl)acetamide], the IC50 was < 100 nM in assay [1] and 100 to 1000 nM in assay [2].
For `Cc1ccnc(Nc2cccc(-c3cnc(C4CCNCC4)s3)n2)c1` [Compound A-92, (4-methylpyridin-2-yl)-[6-(2-piperidin-4-ylthiazol-5-yl)pyridin-2-yl]amine] the same measures were < 100 nM and 100 to 1000 nM.
For `CC(=O)O[C@@H]1C[C@@H](c2ncc(-c3cccc(Nc4cc(C)ccn4)n3)s2)N(C(C)=O)C1` [Compound A-93] the same measures were 100 to 1000 nM and > 1000 nM.
For `CC(=O)N1CCC(c2ncc(-c3cccc(Nc4cc(C)ccn4)n3)s2)CC1` [Compound A-94] the same measures were 100 to 1000 nM and 100 to 1000 nM.
Take `CC(=O)N1C[C@H](O)C[C@H]1c1ncc(-c2cccc(Nc3cc(C)ccn3)n2)s1` [Compound A-95]: the IC50 in assay [1] was 100 to 1000 nM; in assay [2], > 1000 nM.
For `Cc1ccnc(Nc2cccc(-c3cnc([C@@H](N)CCC(=O)OCc4ccccc4)s3)n2)c1` [Compound A-97] the same measures were 100 to 1000 nM and 100 to 1000 nM.
For `CC(=O)N[C@@H](CCC(=O)OCc1ccccc1)c1ncc(-c2cccc(Nc3cc(C)ccn3)n2)s1` [Compound A-98] the same measures were 100 to 1000 nM and > 1000 nM.
For `CC(=O)N[C@@H](Cc1ccc(O)cc1)c1ncc(-c2cccc(Nc3cc(C)ccn3)n2)s1` [Compound A-99] the same measures were 100 to 1000 nM and 100 to 1000 nM.
With `CCOC(=O)c1nc([C@H](C)N)sc1-c1cccc(Nc2cc(C)ccn2)n1` [Compound A-101], the IC50 in assay [1] and in assay [2] was > 1000 nM throughout.
On to `CCOC(=O)c1nc([C@H](C)NC(C)=O)sc1-c1cccc(Nc2cc(C)ccn2)n1` [Compound A-102], for which the IC50 in assay [1] and in assay [2] was > 1000 nM in each case.
For the molecule `CC(=O)N[C@@H](CCC(=O)O)c1ncc(-c2cccc(Nc3cc(C)ccn3)n2)s1` [Compound A-103], the IC50 in assay [1] is 100 to 1000 nM; in assay [2], > 1000 nM.
For `Cc1ccnc(Nc2cccc(-c3sc([C@H](C)N)nc3C)n2)c1` [Compound A-104] the same measures were 100 to 1000 nM and > 1000 nM.
For `CC(=O)N[C@@H](C)c1nc(C)c(-c2cccc(Nc3cc(C)ccn3)n2)s1` [Compound A-105] the same measures were 100 to 1000 nM and > 1000 nM.
For `Cc1ccnc(Nc2cccc(-c3cnc([C@@H](N)CCC(=O)O)s3)n2)c1` [Compound A-106] the same measures were 100 to 1000 nM and > 1000 nM.
In the case of `Cc1ccnc(Nc2cccc(-c3cnc([C@@H](O)CCC(=O)O)s3)n2)c1` [Compound A-107], the IC50 in assay [1] was 100 to 1000 nM; in assay [2], > 1000 nM.
For `CC(=O)N[C@@H](C)c1nc(CO)c(-c2cccc(Nc3cc(C)ccn3)n2)s1` [Compound A-108] the same measures were > 1000 nM and > 1000 nM.
For `Cc1ccnc(Nc2cccc(-c3cnc(C4=NCCC4)s3)n2)c1` [Compound A-110] the same measures were 100 to 1000 nM and 100 to 1000 nM.
For `Cc1ccnc(Nc2cccc(-c3cnc([C@H]4CC[C@H](C(N)=O)CC4)s3)n2)c1` [Compound A-111, trans-4-{5-[6-(4-methylpyridin-2-ylamino)pyridin-2-yl]thiazol-2-yl}cyclohexanecarboxamide] the same measures were < 100 nM and 100 to 1000 nM.
Turning to `Cc1ccnc(Nc2cccc(-c3cnc(C(C)(C)NC(=O)OC(C)(C)C)s3)n2)c1` [Compound A-112], the IC50 in assay [1] and in assay [2] was > 1000 nM in each case.
For the molecule `Cc1ccnc(Nc2cccc(-c3cnc(C(C)(C)N)s3)n2)c1` [Compound A-113], the IC50 in assay [1] and in assay [2] was 100 to 1000 nM in each case.
Take `CC(=O)NC(C)(C)c1ncc(-c2cccc(Nc3cc(C)ccn3)n2)s1` [Compound A-114]: the IC50 is 100 to 1000 nM in assay [1] and > 1000 nM in assay [2].
For `CC(=O)N[C@@H](C)c1nc(N)c(-c2cccc(Nc3cc(C)ccn3)n2)s1` [Compound A-115] the same measures were > 1000 nM and > 1000 nM.
For `Cc1ccnc(Nc2cccc(-c3sc([C@H](C)NC(=O)CCC(=O)O)nc3C)n2)c1` [Compound A-116] the same measures were > 1000 nM and > 1000 nM.
For the molecule `CC(=O)N[C@@H](C)c1nc(C(N)=O)c(-c2cccc(Nc3cc(C)ccn3)n2)s1` [Compound A-117], the IC50 in assay [1] and in assay [2] was > 1000 nM throughout.
Consider `CC(=O)Nc1nc([C@H](C)NC(C)=O)sc1-c1cccc(Nc2cc(C)ccn2)n1` [Compound A-119], for which the IC50 in assay [1] and in assay [2] was > 1000 nM each time.
With `CCOC(=O)CCC(=O)N[C@@H](C)c1ncc(-c2cccc(Nc3cc(C)ccn3)n2)s1` [Compound A-120], the IC50 in assay [1] and in assay [2] was > 1000 nM throughout.
On to `CCOC(=O)CC(=O)N[C@@H](C)c1ncc(-c2cccc(Nc3cc(C)ccn3)n2)s1` [Compound A-122], for which the IC50 in assay [1] and in assay [2] was > 1000 nM each time.
As for `Cc1ccnc(Nc2cccc(-c3cnc([C@H](C)NC(=O)CC(=O)O)s3)n2)c1` [Compound A-123], the IC50 was 100 to 1000 nM in assay [1] and > 1000 nM in assay [2].
In the case of `Cc1ccnc(Nc2cccc(-c3cnc(C(=O)CCC(=O)O)s3)n2)c1` [Compound A-124], the 50% inhibitory concentration (IC50) in assay [1] was 100 to 1000 nM; in assay [2], > 1000 nM.
For `CC(=O)N[C@@H](C)c1nc(C(C)=O)c(-c2cccc(Nc3cc(C)ccn3)n2)s1` [Compound A-126] the same measures were > 1000 nM and > 1000 nM.
For `Cc1ccnc(Nc2cccc(-c3cnc(CCCCCNC(=O)OC(C)(C)C)s3)n2)c1` [Compound A-127] the same measures were > 1000 nM and > 1000 nM.
For `Cc1ccnc(Nc2cccc(-c3cnc(CCCCCN)s3)n2)c1` [Compound A-128, 5-{5-[6-(4-methylpyridin-2-ylamino)pyridin-2-yl]thiazol-2-yl}pentylamine] the same measures were < 100 nM and > 1000 nM.
For the molecule `CC(=O)NCCCCCc1ncc(-c2cccc(Nc3cc(C)ccn3)n2)s1` [Compound A-129], the IC50 in assay [1] is 100 to 1000 nM; in assay [2], > 1000 nM.
For `COC(=O)CCCc1ncc(-c2cccc(Nc3cc(C)ccn3)n2)s1` [Compound A-130] the same measures were 100 to 1000 nM and > 1000 nM.
For `Cc1ccnc(Nc2cccc(-c3cnc(CCCC(=O)O)s3)n2)c1` [Compound A-131] the same measures were 100 to 1000 nM and > 1000 nM.
Regarding `Cc1ccnc(Nc2cccc(-c3cnc(CCCCO)s3)n2)c1` [Compound A-132, 4-{5-[6-(4-methylpyridin-2-ylamino)pyridin-2-yl]thiazol-2-yl}butan-1-ol], the figures for the IC50 in assay [1] and in assay [2] were < 100 nM and 100 to 1000 nM, respectively.
`COc1ccc(C[C@H](N)c2ncc(-c3cccc(Nc4cc(C)ccn4)n3)s2)cc1` [Compound A-134]: the IC50 was 100 to 1000 nM in assay [1] and > 1000 nM in assay [2].
For `Cc1ccnc(Nc2cccc(-c3cnc(CCc4ccc(O)cc4)s3)n2)c1` [Compound A-135, 4-(2-{5-[6-(4-methylpyridin-2-ylamino)pyridin-2-yl]thiazol-2-yl}ethyl)phenol] the same measures were < 100 nM and 100 to 1000 nM.
For `COc1ccc(C[C@H](NC(C)=O)c2ncc(-c3cccc(Nc4cc(C)ccn4)n3)s2)cc1` [Compound A-136] the same measures were 100 to 1000 nM and > 1000 nM.
For `COc1ccc(CCc2ncc(-c3cccc(Nc4cc(C)ccn4)n3)s2)cc1` [Compound A-137] the same measures were 100 to 1000 nM and > 1000 nM.
`COc1ccc(C[C@H](N)c2ncc(-c3cccc(Nc4cc(C)ccn4)n3)s2)cc1OC` [Compound A-138]: the IC50 in assay [1] was 100 to 1000 nM; in assay [2], > 1000 nM.
For `COc1ccc(C[C@H](NC(C)=O)c2ncc(-c3cccc(Nc4cc(C)ccn4)n3)s2)cc1OC` [Compound A-139] the same measures were 100 to 1000 nM and > 1000 nM.
For `CC(=O)N[C@@H](Cc1ccc(OCCO)cc1)c1ncc(-c2cccc(Nc3cc(C)ccn3)n2)s1` [Compound A-140] the same measures were 100 to 1000 nM and > 1000 nM.
